Data published in patent US20150105252A1, “SUBSTITUTED PYRAZOLES AS HERBICIDES” (E I DU PONT DE NEMOURS AND COMPANY, priority 2013, published 2015).

Assays:
[1] = test system: corn; assay: Test C postemergence; assay type: in vivo, Zea mays; settings: for Plant response rating (scale of 0 to 100 where 0 is no effect and 100 is complete control), Corn: Postemergence, 31 g ai/ha, visually evaluated after 13 to 15 days; for Corn plant response rating / Plant response rating, Corn: postemergence; for Corn plant response rating: 62 g ai/ha, scale 0 to 100
Procedure, shortened: (§1)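 Scores of 0 (no effect) to 100 (complete control) were assigned by eye after 13–15 days, comparing treated pots with controls. Soil-applied (preemergence) treatments went onto seeds in loam and sand; foliar (postemergence) treatments onto 1- to 4-leaf plants in peat medium.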

[2] = test system: nutsedge, yellow; assay: Test C preemergence; assay type: in vivo, Cyperus esculentus; settings: preemergence; for Plant response rating, Nutsedge, Yellow: 125 g ai/ha, scale 0 to 100, 0 = no effect, 100 = complete control
Procedure, shortened: as §1

[3] = test system: ragweed; assay: Test C preemergence; assay type: in vivo, Ambrosia elation; settings: preemergence; for Plant response rating, Ragweed: 125 g ai/ha, scale 0 to 100, 0 = no effect, 100 = complete control
Procedure, shortened: as §1

[4] = test system: crabgrass, large; assay: Test C preemergence; assay type: in vivo, Digitaria sanguinalis; settings: preemergence; for Plant response rating, Crabgrass, Large: 125 g ai/ha, scale 0 to 100, 0 = no effect, 100 = complete control
Procedure, shortened: as §1

[5] = test system: ryegrass, Italian; assay: Test C preemergence; assay type: in vivo, Lolium multiflorum; settings: preemergence; for Plant response rating, Ryegrass, Italian: 125 g ai/ha, scale 0 to 100, 0 = no effect, 100 = complete control
Procedure, shortened: as §1

[6] = test system: lambsquarters; assay: Test C postemergence; assay type: in vivo, Chenopodium album; settings: for Plant response rating (scale of 0 to 100 where 0 is no effect and 100 is complete control), Lambsquarters: Postemergence, 31 g ai/ha, visually evaluated after 13 to 15 days; for Lambsquarters plant response rating / Plant response rating, Lambsquarters: postemergence; for Lambsquarters plant response rating: 62 g ai/ha, scale 0 to 100
Procedure, shortened: as §1

[7] = test system: pigweed; assay: Test A postemergence; assay type: in vivo, Amaranthus retroflexus
Procedure, shortened: (§2)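 Both timings tested concurrently in loam/sand soil: preemergence by directed soil spray, postemergence on plants of 2–10 cm at the one- to two-leaf stage. Greenhouse holding period was approximately 10 days before visual injury assessment (0–100, 0 = no effect).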

[8] = test system: wheat; assay: Test A preemergence; assay type: in vivo, Triticum aestivum; settings: preemergence; for Wheat plant response rating (0 to 100 scale): 125 g ai/ha, visual injury approx. 10 days after treatment; for Wheat plant response rating: 500 g ai/ha, visual injury after approx. 10 days, 0 to 100 scale (0 no effect, 100 complete control)
Procedure, shortened: as §2

[9] = test system: foxtail, giant; assay: Test C preemergence; assay type: in vivo, Setaria faberii; settings: preemergence; for Plant response rating, Foxtail, Giant: 125 g ai/ha, scale 0 to 100, 0 = no effect, 100 = complete control
Procedure, shortened: as §1

[10] = test system: waterhemp; assay: Test C postemergence; assay type: in vivo, Amaranthus rudis; settings: postemergence; for Plant response rating, Waterhemp: 250 g ai/ha, scale 0 to 100 (0 no effect, 100 complete control); for Waterhemp plant response rating: scale 0 to 100
Procedure, shortened: as §1

[11] = test system: waterhemp; assay: Test C preemergence; assay type: in vivo, Amaranthus rudis; settings: preemergence; for Plant response rating, Waterhemp: 125 g ai/ha, scale 0 to 100, 0 = no effect, 100 = complete control
Procedure, shortened: as §1

[12] = test system: ryegrass, Italian; assay: Test C postemergence; assay type: in vivo, Lolium multiflorum; settings: postemergence
Procedure, shortened: as §1

[13] = test system: ducksalad; assay: Test B flood; assay type: in vivo, Heteranthera limosa; settings: 250 g ai/ha, visual rating on 0 to 100 scale (0 no effect, 100 complete control), 13 to 15 days
Procedure, shortened: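 Visual ratings (0 = no effect, 100 = complete control) versus untreated controls were taken 13–15 days after treatment of greenhouse plants. Treatment was added to paddy water held at 3 cm depth on 2-leaf-stage seedlings.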

[14] = 250 g ai/ha, scale 0 to 100 (0 no effect, 100 complete control)
[15] = 125 g ai/ha, scale 0 to 100, 0 no effect, 100 complete control
[16] = 31 g ai/ha, visual rating, scale 0 to 100 (0 no effect, 100 complete control), 13 to 15 days
[17] = 62 g ai/ha, scale 0 to 100 (0 no effect, 100 complete control), 13 to 15 days
[18] = 250 g ai/ha, scale 0 to 100, 0 is no effect, 100 is complete control
[19] = Postemergence, 500 g ai/ha, 0 to 100 scale (0 no effect, 100 complete control)
[20] = postemergence, 125 g ai/ha, about 10 days, visual rating on 0 to 100 scale (0 no effect, 100 complete control)

For `CCNC(=O)c1cc(CC)n(Cc2cc(C(F)(F)F)nn2C)n1` [Compound 154], the “Plant response rating (scale of 0 to 100 where 0 is no effect and 100 is complete control), Corn” value [1] was 5, the “Corn plant response rating” value [1] was 5 and the “Plant response rating, Corn” value [1, 14] was 10. The “Plant response rating, Corn” value [1, 15] was 10, the “Nutsedge, Yellow plant response rating” value [2, 16] was 0 and the “Nutsedge, Yellow plant response rating” value [2, 17] was 15. For the same molecule, the “Plant response rating, Nutsedge, Yellow” value ([2]; 13 to 15 days) was 35, the “Nutsedge, Yellow plant response rating” value [2, 18] was 60 and the “Ragweed plant response rating” value [3, 16] was 25. The “Ragweed plant response rating” value [3, 17] was 80, the “Plant response rating, Ragweed” value ([3]; 13 to 15 days) was 98 and the “Ragweed plant response rating” value [3, 18] was 98. For the same molecule, the “Crabgrass, Large plant response rating” value [4, 16] was 100, the “Crabgrass, Large plant response rating” value [4, 17] was 100 and the “Plant response rating, Crabgrass, Large” value ([4]; 13 to 15 days) was 100. The “Crabgrass, Large plant response rating” value [4, 18] was 100, the “Ryegrass, Italian plant response rating” value [5, 16] was 5 and the “Ryegrass, Italian plant response rating” value [5, 17] was 10. The “Plant response rating, Ryegrass, Italian” value ([5]; 13 to 15 days) was 50, the “Ryegrass, Italian plant response rating” value [5, 18] was 90 and the “Plant response rating (scale of 0 to 100 where 0 is no effect and 100 is complete control), Lambsquarters” value [6] was 40. The “Lambsquarters plant response rating” value [6] was 50, the “Plant response rating, Lambsquarters” value [6, 14] was 75 and the “Plant response rating, Lambsquarters” value [6, 15] was 75. For the same molecule, the “Pigweed plant response rating” value [7, 19] was 100, the “Pigweed plant response rating” value [7, 20] was 100 and the “Wheat plant response rating (0 to 100 scale)” value [8] was 0. For the same molecule, the “Wheat plant response rating” value [8] was 100, the “Foxtail, Giant plant response rating” value [9, 16] was 30 and the “Foxtail, Giant plant response rating” value [9, 17] was 90. For the same molecule, the “Plant response rating, Foxtail, Giant” value ([9]; 13 to 15 days) was 100, the “Foxtail, Giant plant response rating” value [9, 18] was 100 and the “Plant response rating, Waterhemp” value [10] was 85. The “Waterhemp plant response rating” value [10] was 65, the “Waterhemp plant response rating” value [11, 16] was 85 and the “Waterhemp plant response rating” value [11, 17] was 100. For the same molecule, the “Plant response rating, Waterhemp” value ([11]; 13 to 15 days) was 100, the “Waterhemp plant response rating” value [11, 18] was 100 and the “Plant response rating, Ryegrass, Italian” value [12, 14] was 5. The “Plant response rating, Ryegrass, Italian” value [12, 15] was 0 and the “Plant response rating, Ducksalad” value [13] was 90.
For `CCCNC(=O)c1cc(CCF)n(Cc2ccnc(C(F)(F)F)c2)n1` [Compound 177], the “Plant response rating (scale of 0 to 100 where 0 is no effect and 100 is complete control), Corn” value [1] was 5, the “Corn plant response rating” value [1] was 20 and the “Plant response rating, Corn” value [1, 14] was 15. For the same molecule, the “Plant response rating, Corn” value [1, 15] was 15, the “Nutsedge, Yellow plant response rating” value [2, 16] was 5 and the “Nutsedge, Yellow plant response rating” value [2, 17] was 60. For the same molecule, the “Plant response rating, Nutsedge, Yellow” value ([2]; 13 to 15 days) was 80, the “Nutsedge, Yellow plant response rating” value [2, 18] was 95 and the “Ragweed plant response rating” value [3, 16] was 75. For the same molecule, the “Ragweed plant response rating” value [3, 17] was 85, the “Plant response rating, Ragweed” value ([3]; 13 to 15 days) was 98 and the “Ragweed plant response rating” value [3, 18] was 98. For the same molecule, the “Crabgrass, Large plant response rating” value [4, 16] was 100, the “Crabgrass, Large plant response rating” value [4, 17] was 100 and the “Plant response rating, Crabgrass, Large” value ([4]; 13 to 15 days) was 100. The “Crabgrass, Large plant response rating” value [4, 18] was 100, the “Ryegrass, Italian plant response rating” value [5, 16] was 5 and the “Ryegrass, Italian plant response rating” value [5, 17] was 40. The “Plant response rating, Ryegrass, Italian” value ([5]; 13 to 15 days) was 85, the “Ryegrass, Italian plant response rating” value [5, 18] was 90 and the “Plant response rating (scale of 0 to 100 where 0 is no effect and 100 is complete control), Lambsquarters” value [6] was 65. For the same molecule, the “Lambsquarters plant response rating” value [6] was 50, the “Plant response rating, Lambsquarters” value [6, 14] was 85 and the “Plant response rating, Lambsquarters” value [6, 15] was 75. The “Pigweed plant response rating” value [7, 19] was 100, the “Pigweed plant response rating” value [7, 20] was 100 and the “Wheat plant response rating (0 to 100 scale)” value [8] was 10. The “Wheat plant response rating” value [8] was 100, the “Foxtail, Giant plant response rating” value [9, 16] was 85 and the “Foxtail, Giant plant response rating” value [9, 17] was 98. For the same molecule, the “Plant response rating, Foxtail, Giant” value ([9]; 13 to 15 days) was 100, the “Foxtail, Giant plant response rating” value [9, 18] was 100 and the “Plant response rating, Waterhemp” value [10] was 65. The “Waterhemp plant response rating” value [10] was 75, the “Waterhemp plant response rating” value [11, 16] was 98 and the “Waterhemp plant response rating” value [11, 17] was 98. The “Plant response rating, Waterhemp” value ([11]; 13 to 15 days) was 98, the “Waterhemp plant response rating” value [11, 18] was 100 and the “Plant response rating, Ryegrass, Italian” value [12, 14] was 5. The “Plant response rating, Ryegrass, Italian” value [12, 15] was 5 and the “Plant response rating, Ducksalad” value [13] was 95.
